Source: paper PMC2956513, “Novel tricyclic pyrazole BRAF inhibitors with imidazole or furan central scaffolds” (Bioorganic & Medicinal Chemistry, 2010)

Experiments:
[1] = target: V600EBRAF (Homo sapiens, UniProt P15056, V600E); test: V600EBRAF kinase assay (MEK1/2 phosphorylation as endpoint); assay type: biochemical; conditions: for IC50: isolated full length V600EBRAF kinase activity; for BRAF activity in words: BRAF IC50 assay
Protocol: (§1) The biological activities of compounds 1a–p were assessed in three assays: • (1) Inhibition of the isolated ^V600EBRAF kinase activity (IC50 BRAF), measuring MEK1/2 phosphorylation as the endpoint.[15] […] We measured the IC50 BRAF values in this paper, since they represent the inhibition of BRAF function which we consider more meaningful than the binding of inhibitor to BRAF. • (2) Inhibition of ^V600EBRAF-dependent ERK phosphorylation in WM266.4 melanoma cells (IC50 pERK). • (3) Growth inhibition of WM266.4 melanoma cells measured by sulforhodamine-B (GI50 SRB).
(§2) These assays have been described by Niculescu-Duvaz et al.[15]

[2] = test system: WM266.4 melanoma cells; test: Growth inhibition of WM266.4 cells by sulforhodamine-B (SRB); assay type: cell-based, human; conditions: for GI50 / GI50 SRB activity in words: WM266.4 cells; for GI50: sulforhodamine-B
Protocol: as §1, §2

[3] = test system: V600EBRAF-dependent ERK phosphorylation in WM266.4 melanoma cells; test: Phospho-ERK IC50 assay in WM266.4 cells; assay type: cell-based, human; conditions: for IC50: Homo sapiens, WM 266-4, 6 h incubation, read-out: IC50 ppERK
Protocol: as §1
To determine the effect of compounds on BRAF activity in cells, WM266.4 cells were seeded at a density of 3 × 10^4 cells per well of a 96 well plate. The following day, test compounds were diluted into growth medium to 2× the desired final concentration and then added directly to the cells. After a 6 h incubation, the medium was removed and cells were fixed and permeabilized in 4% formaldehyde, 0.1% triton X-100 in PBS for 30 min. The wells were then blocked with 5% milk in PBS for 30 min at room temperature, followed by the addition of an antibody for phospho-ERK1/2 (Sigma, Dorset, UK) at […] in blocking solution. Plates were incubated for 3 h with shaking. Plates were washed three times with 0.1% Tween 20 using an ELx50 plate washer (BioTek, Winooski, USA). […] of a Europium-labelled anti-mouse secondary antibody (Perkin Elmer, Turku, Finland) was added to the wells in DELFIA assay buffer for 1 h. Plates were washed again and Enhancement solution was added to the wells and time resolved fluorescence was measured as instructed by the manufacturer after 20 min using a Spectramax M5 plate reader (Molecular Devices, Berkshire, UK). The plates were washed again and BCA protein assay reagent (Sigma, Dorset, UK) was added to the wells and incubated for 30 min at 37 °C. Absorbance at 570 nm was measured using a plate reader and used to normalize the fluorescence data. Inhibition of ERK phosphorylation was determined as a percentage of DMSO-treated cells and IC50 values were calculated using Prism (GraphPad Software, San Diego, USA).

[4] = PK assessment in mice after intraperitoneal administration; assay type: in vivo, mouse; conditions: CD1 nu/nu female mice, intraperitoneal 4 mg/kg, cassette dosing
Protocol: The apparent clearance, half-life (t1/2) and maximal plasma concentration of a representative tricyclic pyrazole, compound 1h, were determined in vivo in CD1 nu/nu female mice following an intraperitoneal administration of 1h.
Female Crl:CD1-Foxn1nu mice at least six weeks of age bearing mutant BRAF WM266.4 human tumor xenografts were used for the PK analyses. The mice were dosed intraperitoneally (4 mg/kg, equivalent to ca. 8 μmol/kg, 10 ml/kg, in 10% ethanol:40% PEG:50% Gelofusine v/v) in a cassette with 4 other compounds. Samples were taken at 8 time-points between 15 min and 24 h. Three mice were utilized per time-point. They were placed under isoflurane anaesthesia and blood for plasma preparation was taken by terminal cardiac puncture into heparinized syringes. Plasma samples were snap frozen in liquid nitrogen and then stored at −70 °C prior to analysis. All procedures involving animals were performed in accordance with national Home Office regulations under the Animals (Scientific Procedures) Act 1986 and within guidelines set out by the Institute’s Animal Ethics Committee and the United Kingdom Coordinating Committee for Cancer Research’s ad hoc Committee on the Welfare of Animals in Experimental Neoplasia.

[5] = target: BRAF (Homo sapiens, UniProt P15056); test: BRAF fluorescent ligand binding assay; conditions: alternative BRAF fluorescent ligand binding assay
Chain of BRAF (P15056 whole entry): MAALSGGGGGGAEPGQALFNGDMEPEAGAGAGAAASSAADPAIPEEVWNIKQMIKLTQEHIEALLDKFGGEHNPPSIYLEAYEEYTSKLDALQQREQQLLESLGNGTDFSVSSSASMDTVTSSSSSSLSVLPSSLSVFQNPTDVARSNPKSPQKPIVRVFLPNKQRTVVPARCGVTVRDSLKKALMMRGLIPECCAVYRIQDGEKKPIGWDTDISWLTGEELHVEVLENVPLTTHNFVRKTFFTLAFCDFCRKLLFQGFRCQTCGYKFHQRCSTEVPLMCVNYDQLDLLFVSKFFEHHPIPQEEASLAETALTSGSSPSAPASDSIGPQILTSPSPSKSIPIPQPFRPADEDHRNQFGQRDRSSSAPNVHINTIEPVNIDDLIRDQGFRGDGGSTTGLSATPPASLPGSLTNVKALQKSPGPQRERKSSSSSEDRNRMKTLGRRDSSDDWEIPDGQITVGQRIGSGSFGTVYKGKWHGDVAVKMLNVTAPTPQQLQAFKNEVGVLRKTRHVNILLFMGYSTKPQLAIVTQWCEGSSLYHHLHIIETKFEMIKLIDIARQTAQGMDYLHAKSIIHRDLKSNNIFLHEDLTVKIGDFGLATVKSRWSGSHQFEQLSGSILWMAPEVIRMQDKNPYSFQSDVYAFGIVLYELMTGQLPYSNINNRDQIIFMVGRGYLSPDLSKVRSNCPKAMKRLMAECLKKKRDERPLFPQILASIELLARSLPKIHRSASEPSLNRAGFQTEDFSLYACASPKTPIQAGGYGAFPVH

Chain of V600EBRAF (P15056 whole entry V600E): as the sequence (P15056 whole entry) above, with V600E counted along it

Row | SMILES | IC50 [1] [nM] | GI50 ([2]; Homo sapiens, WM 266-4) [nM] | IC50 [3] [nM] | also measured
1 | CN(C)CCOc1ccc(-c2nc(-c3ccc(-c4cc[nH]n4)cc3)c(-c3ccncc3)[nH]2)cc1 [1a, Dimethyl-[2-(4-{5-[4-(1H-pyrazol-3-yl)-phenyl]-4-pyridin-4-yl-1H-imidazol-2-yl}-phenoxy)-ethyl]-amine] | 1600 | 7400 | 5800 | 
2 | CN(C)CCN1CCN(C(=O)c2cc(-c3ccc4c(c3)Cc3cn[nH]c3-4)c(-c3ccncc3)o2)CC1 [1l, [4-(2,4-Dihydro-indeno[1,2-c]pyrazol-6-yl)-5-pyridin-4-yl-furan-2-yl]-[4-(2-dimethylamino-ethyl)-piperazin-1-yl]-methanone] | 3600 | 1610 | 740 | 
3 | CN(C)CCOc1ccc(-c2nc(-c3ccc4c(c3)CC3CC(=O)NN=C43)c(-c3ccncc3)[nH]2)cc1 (centres unmarked) [1g, 7-{2-[4-(2-Dimethylamino-ethoxy)-phenyl]-5-pyridin-4-yl-1H-imidazol-4-yl}-2,4,4a,5-tetrahydro-indeno[1,2-c]pyridazin-3-one] | > 10000 | 8900 | 100000 | 
4 | CN(C)CCOc1ccc(-c2nc(-c3ccc4c(c3)Cc3cn[nH]c3-4)c(-c3ccncc3)[nH]2)cc1 [1h, (2-{4-[5-(2,4-Dihydro-indeno[1,2-c]pyrazol-6-yl)-4-pyridin-4-yl-1H-imidazol-2-yl]-phenoxy}-ethyl)-dimethyl-amine] | 230 | 1150 | 1090 | half-life ([4]; CD1 nu/nu (Crl:CD1-Foxn1nu), mouse, ip, plasma, read-out: half-life (T1/2) (converted)): 3.9 h; Cmax ([4]; CD1 nu/nu (Crl:CD1-Foxn1nu), mouse, ip, plasma, read-out: maximal plasma concentration (Cmax)): 5.8 µM; plasma clearance (CL) ([4]; apparent clearance): 11 mL/min/kg; Kd [5]: 6.1 nM; IC50 ([2]; Homo sapiens, WM 266-4, SRB cellular IC50, value in PK text): 1100 nM
5 | CN(C)CCOc1ccc(-c2nc(-c3ccc4c(c3)Cc3nn[nH]c3-4)c(-c3ccncc3)[nH]2)cc1 [1i, (2-{4-[5-(3,8-Dihydro-indeno[1,2-d] [1,2,3]triazol-6-yl)-4-pyridin-4-yl-1H-imidazol-2-yl]-phenoxy}-ethyl)-dimethyl-amine] | > 10000 |  | 4400 | BRAF activity in words [1]: inactive
6 | CN(C)CCOc1ccc(-c2nc(-c3ccc(-c4n[nH]cc4Cl)cc3)c(-c3ccncc3)[nH]2)cc1 [1d, [2-(4-{5-[4-(4-Chloro-1H-pyrazol-3-yl)-phenyl]-4-pyridin-4-yl-1H-imidazol-2-yl}-phenoxy)-ethyl]-dimethyl-amine] | 3700 | 4100 | 10000 | 
7 | Cc1c[nH]nc1-c1ccc(-c2nc(-c3ccc(OCCN(C)C)cc3)[nH]c2-c2ccncc2)cc1 [1b, Dimethyl-[2-(4-{5-[4-(4-methyl-1H-pyrazol-3-yl)-phenyl]-4-pyridin-4-yl-1H-imidazol-2-yl}-phenoxy)-ethyl]-amine] | 1200 | 3900 | 2020 | 
8 | O=C(c1cc(-c2ccc3c(c2)Cc2cn[nH]c2-3)c(-c2ccncc2)o1)N1CCNCC1 [1n, [4-(2,4-Dihydro-indeno[1,2-c]pyrazol-6-yl)-5-pyridin-4-yl-furan-2-yl]-piperazin-1-yl-methanone] | 2780 | 1590 | 970 | 
9 | CN(C)CCOc1ccc(-c2nc(-c3ccc(-c4n[nH]cc4C#N)cc3)c(-c3ccncc3)[nH]2)cc1 [1c, 3-(4-{2-[4-(2-Dimethylamino-ethoxy)-phenyl]-5-pyridin-4-yl-3H-imidazol-4-yl}-phenyl)-1H-pyrazole-4-carbonitrile] | > 10000 | 11000 | > 100000 | 
10 | CN(C)CCN1CCN(C(=O)c2cc(-c3ccc4c(c3)Cc3cnn(C)c3-4)c(-c3ccncc3)o2)CC1 [1p, [4-(2-Dimethylamino-ethyl)-piperazin-1-yl]-[4-(1-methyl-1,4-dihydro-indeno [1,2-c]pyrazol-6-yl)-5-pyridin-4-yl-furan-2-yl]-methanone] | > 10000 |  | > 10000 | 
11 | CN1CCN(c2ccc(-c3nc(-c4ccc5c(c4)Cc4cn[nH]c4-5)c(-c4ccncc4)[nH]3)cc2)CC1 [1j, 6-{2-[4-(4-Methyl-piperazin-1-yl)-phenyl]-5-pyridin-4-yl-3H-imidazol-4-yl}-2,4-dihydro-indeno[1,2-c]pyrazole] | 240 | 870 | 580 | BRAF activity in words [1]: submicromolar activity; GI50 SRB activity in words [2]: submicromolar activity; IC50 ppERK activity in words [3]: submicromolar activity
12 | CN(C)CCOc1ccc(-c2nc(-c3ccc4c(c3)CCc3cn[nH]c3-4)c(-c3ccncc3)[nH]2)cc1 [1e, (2-{4-[5-(4,5-Dihydro-2H-benzo[g]indazol-7-yl)-4-pyridin-4-yl-1H-imidazol-2-yl]-phenoxy}-ethyl)-dimethyl-amine] | 1840 |  | 5800 | 
13 | CN(C)CCOc1ccc(-c2nc(-c3ccc4c(ccc5cn[nH]c54)c3)c(-c3ccncc3)[nH]2)cc1 [1f, (2-{4-[4-(1H-Benzo[g]indazol-7-yl)-5-pyridin-4-yl-1H-imidazol-2-yl]-phenoxy}-ethyl)-dimethyl-amine] | 1710 | 3300 | 25000 | 
14 | CN1CCN(C(=O)c2cc(-c3ccc4c(c3)Cc3cn[nH]c3-4)c(-c3ccncc3)o2)CC1 [1o, [4-(2,4-Dihydro-indeno[1,2-c]pyrazol-6-yl)-5-pyridin-4-yl-furan-2-yl]-(4-methyl-piperazin-1-yl)-methanone] | 7500 | 1910 | 730 | 
15 | O=C(c1cc(-c2ccc3c(c2)Cc2cn[nH]c2-3)c(-c2ccncc2)o1)N1CCOCC1 [1m, [4-(2,4-Dihydro-indeno[1,2-c]pyrazol-6-yl)-5-pyridin-4-yl-furan-2-yl]-morpholin-4-yl-methanone] | 2150 | 940 | 840 | GI50 SRB activity in words [2]: submicromolar activity; IC50 ppERK activity in words [3]: submicromolar activity
16 | c1cc(-c2[nH]c(C3CCNCC3)nc2-c2ccc3c(c2)Cc2cn[nH]c2-3)ccn1 [1k, 6-(2-Piperidin-4-yl-5-pyridin-4-yl-3H-imidazol-4-yl)-2,4-dihydro-indeno[1,2-c]pyrazole] | 1330 | 36000 | 4900 | 
